# Entries after “also recorded” stand apart in the source; their conditions may differ.
# What was measured:
# PHA-stimulated HPBL = assay: TUNEL assay of apoptosis, flow cytometry, PHA-stimulated HPBL; type: cell-based, human; settings: 10 μg/ml PHA-P; 30 μM ODN; 3 days
# Text: Nevertheless, the effects of AS ODNs on HPBL can still be tested by quantifying and comparing the percentage of cells undergoing apoptosis in the presence and absence of the AS ODN. Apoptosis detected by examining endonuclease-digested DNA, commonly referred to as the DNA laddering technique, has been employed and the results therefrom are set forth in FIG. 5. However, we prefer to use a TUNEL assay, an acronym for terminal deoxynucleotidyl transferase (TdT)-mediated dUTP nick end labeling, which more readily allows quantitation of the percentage of cells undergoing apoptosis. The principle of the TUNEL assay is that endonuclease digestion during apoptosis results in the formation of 3'-OH ends in the digested DNA. The digested DNA in the apoptotic cells can then be labeled with fluorescein by catalytically incorporating fluorescein-12-dUTP at the 3'-OH ends using the TdT enzyme. Fluorescence can then be quantitated by flow cytometry, using a fluorescence activated cell sorter (FACS), which would give a measure of the number of cells undergoing apoptosis. An example of the appearance of a population of fluorescein labeled apoptotic cells, as evidenced by flow cytometry, following TUNEL assay labeling of the cells, is shown in FIGS. 6A-C. […]
# [1] = system: PDE1B1 mRNA in RPMI 8392 cells; assay: Quantitative RT-PCR of PDE1B1 mRNA after ODN treatment; type: cell-based, human; settings: 10 or 30 μM ODN
# Text: This is usually determined by looking at the reduction or disappearance of the protein product, either by selective measurement of an enzymatic activity of the protein, where applicable, or by immunoquantitation with specific antibodies by Western blot or ELISA techniques. Also, when PO or PS ODNs are used, which are capable of activating RNase H activity, it is expected that the mRNA of the targeted gene would be down regulated, most of the time, along with the protein product, and this can be readily tested by Northern blot analysis or PCR techniques. Using quantitative RT-PCR with primers specific for PDE1B1, we examined the RPMI 8392 cells for the presence of PDE1B1 mRNA. […] NS ODN, at these concentrations, had no effect on the expression of PDE1B1 mRNA. […] In this connection, the expression of β-actin is unaffected by cAMP and, therefore, β-actin mRNA levels were used as a control. Another gene that is often also used for control measurements for this purpose is that of glyceraldehyde-3-phosphate dehydrogenase (G3PDH).
# HPBL were isolated from a normal human donor and placed in culture with (+PHA) or without (-PHA) phytohemagglutinin for 3 days. Quantitative RT-PCR was performed with 2 μg of HPBL RNA, using reagents and protocol from GIBCO/BRL. Degenerate 23 nt primers were synthesized based on reported sequences for PDE1B1. The sequence of the forward primer (Primer 1) corresponds to nt -34 to -12 and the sequence of the reverse primer (Primer 2) is complementary to nt 277 to 299 of the PDE1B1 cDNA. […]
# Using quantitative RT-PCR, the effect of AS ODN and NS ODN on the level of mRNA for PDE1B1 in RPMI 8392 cells was examined. Quantitative RT-PCR was used to determine the relative amounts of β-actin and PDE1B1 mRNAs present in RPMI 8392 cells after 1 and 2 days in culture with 10 μM and 30 μM AS ODN (AS) and NS ODN (NS). […]
Substance,Apoptosis in PHA-stimulated HPBL (TUNEL) (PHA-stimulated HPBL),Level of PDE1B1 mRNA expression ([1]; 1 day),Level of PDE1B1 mRNA expression ([1]; 2 days),Level of PDE1B1 mRNA expression ([1]; 1 and 2 days)
"5'-GGACAGCTCCATGCTCAG-3' (phosphorothioate, further chemistry not given here) [AS ODN, 18 nt phosphorothioate antisense oligodeoxynucleotide targeted against the translation initiation region of PDE1B1]",show the appearance of a population of highly fluorescein labeled cells; also recorded: induced apoptosis,diminished,absent; also recorded: almost undetectable,
"5'-TACGTGAGGCACCTACGC-3' (phosphorothioate, further chemistry not given here) [NS ODN, control phosphorothioate nonsense ODN, same base composition as the AS ODN in random, scrambled order]",do not show the appearance of this population; also recorded: no effect,,,no effect

# — patent US5885834A, “Antisense oligodeoxynucleotide against phosphodiesterase” (priority 1997, dated 1999)
